Read-outs that look alike come from different tables or passages of the source. Each block holds one compound with its values, some of them ahead of it.
Assays:
Ba/F3 ETV6-NTRK3-G623R = biological target: T1, Ba/F3 ETV6-NTRK3-G623R (Homo sapiens, UniProt Q16288, G623R, cells depend on it); assay: In vitro cell proliferation inhibition (MTT); assay type: cell-based, murine; settings: 72 h, read-out: IC50 Ba/F3 ETV6-NTRK3-G623R
T1 construct: fused on or other part: P41212 (Transcription factor ETV6)
Procedure: (§1) Cells in the logarithmic growth phase were harvested and counted using a […]. The cell suspension with a certain density was pipetted uniformly and seeded into a 96-well plate with each well of 100 μL, and shaken to make the cells uniformly disperse into the wells. 100 μL of compound solution with certain concentration gradient was added into each well, and 3 duplicate wells were set for each concentration. The plate was cultured in a CO2 incubator at 37° C. for 72 h. 20 μL of MTT working solution (5 mg/mL) was added into each well, and the plate was placed at 37° C. for 4 h, and centrifuged at 1000 rpm for 5 min by a plate centrifuge. After 180 μL of culture medium was discarded, the plate was added with 150 μL of DMSO, and mixed well with a microplate shaker, the plate bottom was wiped, and optical density (OD) at 550 nm was detected with a microplate reader.

Ba/F3 ETV6-NTRK2 = biological target: T2, Ba/F3 ETV6-NTRK2 (Homo sapiens, UniProt Q16620); assay: In vitro cell proliferation inhibition (MTT); assay type: cell-based, murine; settings: 72 h, read-out: IC50 Ba/F3 ETV6-NTRK2
T2 construct: fused on or other part: P41212 (Transcription factor ETV6)
Procedure: as §1

Ba/F3 ETV6-NTRK3-G696A = biological target: T3, Ba/F3 ETV6-NTRK3-G696A (Homo sapiens, UniProt Q16288, G696A, cells depend on it); assay: In vitro cell proliferation inhibition (MTT); assay type: cell-based, murine; settings: 72 h, read-out: IC50 Ba/F3 ETV6-NTRK3-G696A
T3 construct: fused on or other part: P41212 (Transcription factor ETV6)
Procedure: • Source of 6 kinds of cell lines for the test: KYinno Biotechnology (Beijing) Co., Ltd. • Cell type: murine B cells • Culture medium: RPMI-1640+10% FB S 2. Test Method
as §1

[1] = system: tropomyosin receptor kinase; settings: 46 evaluable patients, phase I and phase II clinical trials; cited from earlier work
ALK = biological target: T4, ALK (Homo sapiens, UniProt Q9UM73); assay: Kinase inhibition assay with fluorescein labeled peptide, ALK; assay type: biochemical
T4 construct: purchased Carna 08-105
Procedure: (§2) Compounds were diluted to a certain concentration in DMSO with 4-fold gradients. The compound with a certain concentration, an enzyme solution and DMSO were added into a 384-well plate, and the plate was incubated at room temperature for 10 min. […] The plate was subjected to reading.

TRKC(G623R) = biological target: T5, TRKC(G623R) (Homo sapiens, UniProt Q16288, G623R); assay: HTRF kinase inhibition assay, TRKC(G623R); assay type: biochemical
T5 construct: purchased Bioduro
Procedure: (§3) The compound to be tested with a certain concentration gradient and an enzyme solution were successively added into a plate (kinase buffer (1× kinase buffer (Cisbio, Cat #62EZBFDD), pH 7.5; 5 mM MgCl2, 1 mM DTT) was added into negative control wells), and the compound plate was centrifuged at 1000 rpm for 30 seconds. The plate was sealed and incubated in a Constant Temperature Incubator at 25° C. for 30 min. A substrate solution containing TK-Sub-biotin (Cisbio, Cat #61TKOBL) and ATP (Sigma, Cat #R0441) was prepared, the substrate solution was added into a 384-well plate, and the plate was centrifuged at 1000 rpm for 30 seconds. The plate was sealed and incubated in a Constant Temperature Incubator at 25° C. for 60 min.
(§4) TK antibody and XL665 were diluted, mixed and added into the assay plate, and the plate was centrifuged at 1000 rpm for 30 seconds. The plate was sealed and incubated in a Constant Temperature incubator Incubator at 25° C. for 60 min. The assay plate was placed on an Envision reader for reading. (HTRF 665/615 ratio: signal value at 665 nm/signal value at 615 nm) Inhibition=(rationegative control well−ratiocompound well)/(rationegative control well−ratioenzyme-free control well)×100% 1.3 Data Analysis and Curve Fitting
(§5) Data were fitted in XLFit excel add-in version 5.4.0.8 to obtain IC50 values.

Ba/F3 LMNA-NTRK1-G595R = biological target: T6, Ba/F3 LMNA-NTRK1-G595R (Homo sapiens, UniProt P04629, G595R, cells depend on it); assay: In vitro cell proliferation inhibition (MTT); assay type: cell-based, murine; settings: 72 h, read-out: IC50 Ba/F3 LMNA-NTRK1-G595R
T6 construct: fused on or other part: P02545 (Prelamin-A/C)
Procedure: as §1

Ba/F3 LMNA-NTRK1-G667C = biological target: T7, Ba/F3 LMNA-NTRK1-G667C (Homo sapiens, UniProt P04629, G667C, cells depend on it); assay: In vitro cell proliferation inhibition (MTT); assay type: cell-based, murine; settings: 72 h, read-out: IC50 Ba/F3 LMNA-NTRK1-G667C
T7 construct: fused on or other part: P02545 (Prelamin-A/C)
Procedure: as §1

Ba/F3 LMNA-NTRK1 = biological target: T8, Ba/F3 LMNA-NTRK1 (Homo sapiens, UniProt P04629); assay: In vitro cell proliferation inhibition (MTT); assay type: cell-based, murine; settings: 72 h, read-out: IC50 Ba/F3 LMNA-NTRK1
T8 construct: fused on or other part: P02545 (Prelamin-A/C)
Procedure: as §1

TRKA(G595R) = biological target: T9, TRKA(G595R) (Homo sapiens, UniProt P04629, G595R); assay: HTRF kinase inhibition assay, TRKA(G595R); assay type: biochemical
T9 construct: purchased signalchem
Procedure: as §3, §4, §5

TRKB = biological target: T10, TRKB (Homo sapiens, UniProt Q16620); assay: HTRF kinase inhibition assay, TRKB; assay type: biochemical
T10 construct: purchased Bioduro
Procedure: as §3
(§6) TK antibody and XL665 were diluted, mixed and added into the assay plate, and the plate was centrifuged at 1000 rpm for 30 seconds. The plate was sealed and incubated in a Constant Temperature incubator Incubator at 25° C. for 60 min. The assay plate was placed on an Envision reader for reading.
as §5

TRKA(G667C) = biological target: T11, TRKA(G667C) (Homo sapiens, UniProt P04629, G667C); assay: HTRF kinase inhibition assay, TRKA(G667C); assay type: biochemical
T11 construct: purchased signalchem
Procedure: as §3, §4, §5

[2] = system: Ba/F3 LMNA-NTRK1-G595R model; settings: gavage
Procedure: (§7) The cells in the logarithmic growth phase were collected and re-suspending in serum-free culture medium to make the cell concentration at […] cells/mL. The cell suspension was added with equal volume of Matrigel to make the final cell concentration at 3×10^7-5×10^7 cells/mL. The animal model was established by subcutaneously inoculating 0.1 mL of tumor cell suspension in the axilla of the forelimb of NuNu mice (female, 4-6 weeks, Beijing Vital River Laboratory Animal Technology Co., Ltd.) in an amount of 3×10^6-5×10^6 cells/mouse.
(§8) The maximum and the minimum tumor diameters of the xenografts in nude mice were measured using a vernier caliper, and the tumor volume (TV) was calculated according to the formula: V=½×a×b^2, where a and b represent the maximum and minimum diameters of the tumor mass, respectively. Nude mice with appropriate tumor volume were selected and the mice were evenly divided into 7 groups of 6 mice (100-200 mm^3) by tumor volume using a random number method.
(§9) Tumor diameters were measured twice weekly and tumor volume was calculated. […] (where Ti represents the mean tumor volume of a certain administration group on a certain day; TO represents the mean tumor volume of the administration group at the start of administration, Vi represents the mean tumor volume of the vehicle control group on a certain day (same day as Ti) and V0 represents the mean tumor volume of the vehicle control group at the start of administration); • Tumor inhibition rate: at the end of the test, the animals were executed by removing the cervical vertebrae.

[3] = system: Ba/F3 LMNA-NTRK1-G667C model; settings: 100 mg/kg, gavage
Procedure: as §7, §8, §9

TRKA = biological target: T12, TRKA (Homo sapiens, UniProt P04629); assay: HTRF kinase inhibition assay, TRKA; assay type: biochemical
T12 construct: purchased Bioduro
Procedure: as §3, §4, §5

TRKC(G696A) = biological target: T13, TRKC(G696A) (Homo sapiens, UniProt Q16288, G696A); assay: HTRF kinase inhibition assay, TRKC(G696A); assay type: biochemical
T13 construct: purchased Bioduro
Procedure: as §3, §6, §5

ROS1 = biological target: T14, ROS1 (Homo sapiens, UniProt P08922); assay: Kinase inhibition assay with fluorescein labeled peptide, ROS1; assay type: biochemical
T14 construct: purchased Carna 08-163
Procedure: as §2

TRKC = biological target: T15, TRKC (Homo sapiens, UniProt Q16288); assay: HTRF kinase inhibition assay, TRKC; assay type: biochemical
T15 construct: purchased Bioduro
Procedure: as §3, §4, §5

GI50 (Ba/F3 ETV6-NTRK3-G623R): 376 nM
GI50 (Ba/F3 ETV6-NTRK2): 15.1 nM
GI50 (Ba/F3 ETV6-NTRK3-G696A): 35.8 nM
IC50 (ALK): > 1000 nM
SMILES: O=C(Nc1cnn2ccc(N3CCC[C@@H]3c3cc(F)ccc3F)nc12)N1CC[C@H](O)C1 [LOXO-101, Larotrectinib]
Overall Response Rate (ORR) [1]: 78%

IC50 (TRKC(G623R)): 0.804 nM
GI50 (Ba/F3 ETV6-NTRK3-G623R): 0.277 nM
GI50 (Ba/F3 LMNA-NTRK1-G595R): 0.095 nM
GI50 (Ba/F3 LMNA-NTRK1-G667C): 0.536 nM
GI50 (Ba/F3 ETV6-NTRK2): 0.977 nM
GI50 (Ba/F3 LMNA-NTRK1): 0.526 nM
IC50 (TRKA(G595R)): < 0.169 nM
GI50 (Ba/F3 ETV6-NTRK3-G696A): 0.693 nM
IC50 (TRKB): 1.15 nM
IC50 (ALK): 31 nM
IC50 (TRKA(G667C)): 0.57 nM
Rate of weight gain (%) ([2]; 50 mg/kg): 13.47%
Rate of weight gain (%) ([2]; 100 mg/kg): 4.36%
Rate of weight gain (%) [3]: 5.75%
IC50 (TRKA): 0.322 nM
IC50 (TRKC(G696A)): 0.558 nM
IC50 (ROS1): 0.4 nM
IC50 (TRKC): 1.04 nM
SMILES: O=C(Nc1ccc(C2CCN(C(=O)CO)CC2)cc1)c1cnn2ccc(N3C[C@@H](F)C[C@@H]3c3cc(F)ccc3F)nc12 [Compound 10, 5-((2R,4S)-2-(2,5-difluorophenyl)-4-fluoropyrrolidin-1-yl)-N-(4-(1-(2-hydroxyacetyl)piperidin-4-yl)phenyl)pyrazolo[1,5-a]pyrimidine-3-carboxamide]
Number of animals (Survival/total) ([2]; 50 mg/kg): (6/6)
TGI (%) ([2]; 50 mg/kg): 134.7%
Tumor volume (mm^3) ([2]; 50 mg/kg): 20.0 ± 12.6 mm^3
Tumor weight ([2]; 50 mg/kg): 0.01 ± 0.01 g
Tumor weight inhibition rate (%) ([2]; 50 mg/kg): 98.09%
Number of animals (Survival/total) ([2]; 100 mg/kg): (6/6)
TGI (%) ([2]; 100 mg/kg): 132.5%
Tumor volume (mm^3) ([2]; 100 mg/kg): 25.8 ± 8.3 mm^3
Tumor weight ([2]; 100 mg/kg): 0.02 ± 0.01 g
Tumor weight inhibition rate (%) ([2]; 100 mg/kg): 96.75%
Number of animals (Survival/total) [3]: (6/6)
TGI (%) [3]: 111.6%
Tumor volume (mm^3) [3]: 91.6 ± 19.5 mm^3
Tumor weight [3]: 0.12 ± 0.02 g
Tumor weight inhibition rate (%) [3]: 77.80%

Reference: US12643906B2, “Fused aza-heterocyclic amide compound and use thereof” (CSPC ZHONGQI PHARMACEUTICAL TECHNOLOGY (SHIJIAZHUANG) CO., …, priority 2020, dated 2026)
